Data reported in ChEMBL document CHEMBL2346598, “Synthesis and pharmacological characterization of 2-(acylamino)thiophene derivatives as metabolically stable, orally effective, positive allosteric modulators of the GABAB receptor” (J Med Chem, 2013).
Values belong to the compound of their own block, whether it stands above or below them. Active and inactive are the calls of the source. No cut-off for these calls is given here.

Columns and labels:
Rattus norvegicus [1] = species: Rattus norvegicus; experiment: Positive allosteric modulation of GABAB receptor in rat cortical membranes assessed as stimulation of [35S]GTPgammaS binding up to 100 uM after 30 mins by liquid scintillation counting analysis; format: functional, cell membranes; settings: Membrane
Rattus norvegicus [2] = species: Rattus norvegicus; experiment: Positive allosteric modulation of GABAB receptor in rat cortical membranes assessed as potentiation of GABA-induced [35S]GTPgammaS binding at 25 uM after 30 mins by liquid scintillation counting analysis relative to GABA; format: functional, cell membranes; settings: Membrane
Rattus norvegicus [3] = species: Rattus norvegicus; experiment: Positive allosteric modulation of GABAB receptor in rat cortical membranes assessed as potentiation of GABA-induced [35S]GTPgammaS binding after 30 mins by liquid scintillation counting analysis; format: functional, cell membranes; settings: Membrane
Rattus norvegicus [4] = species: Rattus norvegicus; experiment: Positive allosteric modulation of GABAB receptor in rat cortical membranes assessed as potentiation of GABA-induced [35S]GTPgammaS binding at 2.5 uM after 30 mins by liquid scintillation counting analysis relative to GABA; format: functional, cell membranes; settings: Membrane
NIH3T3 = experiment: Cytotoxicity against mouse NIH/3T3 cells after 24 hrs by neutral red staining-based UV/visible spectrophotometric analysis; format: cell-based; settings: NIH3T3, 24 h
[5] = Ratio of compound IC50 to COR627 IC50 for mouse NIH/3T3 cells; format: ADME, cell-based, NIH3T3; settings: read-out: Ratio IC50
[6] = Ratio of compound IC50 to COR628 IC50 for mouse NIH/3T3 cells; format: ADME, cell-based, NIH3T3; settings: read-out: Ratio IC50
Mus musculus [7] = experiment: Hypnotic effect in DBA mouse assessed as increase in baclofen-induced duration of loss of righting reflex at 100 to 300 mg/kg, ip incubated for 30 mins prior to baclofen-challenge relative to vehicle-treated control; format: functional, organism-based
Mus musculus [8] = experiment: Hypnotic effect in DBA mouse assessed as potentiation of baclofen-induced loss of righting reflex at 300 mg/kg, ig incubated for 30 mins prior to baclofen-challenge; format: functional, organism-based; design: dose 300 mg/kg
Mus musculus [9] = experiment: Hypnotic effect in DBA mouse assessed as reduction in pentobarbital-induced onset of loss of righting reflex at 300 mg/kg, ip incubated for 30 mins prior to pentobarbital-challenge (reference value: 60.0 +/- 0.0 min); format: functional; settings: route intraperitoneal
Mus musculus [10] = experiment: Hypnotic effect in DBA mouse assessed as reduction in pentobarbital-induced onset of loss of righting reflex at 30 mg/kg, ip incubated for 30 mins prior to pentobarbital-challenge (reference value: 60.0 +/- 0.0 min); format: functional; settings: route intraperitoneal
Mus musculus [11] = experiment: Hypnotic effect in DBA mouse assessed as potentiation of baclofen-induced loss of righting reflex at 10 mg/kg, ip incubated for 30 mins prior to baclofen-challenge; format: functional, organism-based; design: dose 10 mg/kg
Rattus norvegicus [12] = species: Rattus norvegicus; experiment: Positive allosteric modulation of GABAB receptor in rat cortical membranes assessed as potentiation of GABA-induced [35S]GTPgammaS binding at 10 uM after 30 mins by liquid scintillation counting analysis relative to GABA; format: functional, cell membranes; settings: Membrane
Mus musculus [13] = experiment: Hypnotic effect in DBA mouse assessed as increase in pentobarbital-induced duration of loss of righting reflex at 300 mg/kg, ip incubated for 30 mins prior to pentobarbital-challenge; format: functional; settings: route intraperitoneal
Mus musculus [14] = experiment: Hypnotic effect in DBA mouse assessed as increase in pentobarbital-induced duration of loss of righting reflex at 100 mg/kg, ip incubated for 30 mins prior to pentobarbital-challenge; format: functional; settings: route intraperitoneal
Mus musculus [15] = experiment: Hypnotic effect in DBA mouse assessed as potentiation of baclofen-induced loss of righting reflex at 100 mg/kg, ip incubated for 30 mins prior to baclofen-challenge; format: functional, organism-based; design: dose 100 mg/kg
Mus musculus [16] = experiment: Hypnotic effect in DBA mouse assessed as potentiation of pentobarbital-induced loss of righting reflex at 300 mg/kg, ip incubated for 30 mins prior to pentobarbital-challenge; format: functional, organism-based; design: dose 300 mg/kg
Mus musculus [17] = experiment: Hypnotic effect in DBA mouse assessed as reduction in baclofen-induced onset of loss of righting reflex at 300 mg/kg, ig incubated for 30 mins prior to baclofen-challenge relative to vehicle-treated control; format: functional, organism-based; design: dose 300 mg/kg
Mus musculus [18] = experiment: Hypnotic effect in DBA mouse assessed as reduction in pentobarbital-induced onset of loss of righting reflex at 100 mg/kg, ip incubated for 30 mins prior to pentobarbital-challenge (reference value: 60.0 +/- 0.0 min); format: functional; settings: route intraperitoneal
Mus musculus [19] = experiment: Hypnotic effect in DBA mouse assessed as potentiation of baclofen-induced loss of righting reflex at 3 mg/kg, ip incubated for 30 mins prior to baclofen-challenge; format: functional, organism-based; design: dose 3 mg/kg
Mus musculus [20] = experiment: Hypnotic effect in ip dosed DBA mouse assessed as reduction in baclofen-induced onset of loss of righting reflex incubated 30 mins prior to baclofen-challenge; format: functional, organism-based
Mus musculus [21] = experiment: Hypnotic effect in DBA mouse assessed as potentiation of pentobarbital-induced loss of righting reflex at 100 mg/kg, ip incubated for 30 mins prior to pentobarbital-challenge; format: functional, organism-based; design: dose 100 mg/kg
Mus musculus [22] = experiment: Hypnotic effect in DBA mouse assessed as potentiation of pentobarbital-induced loss of righting reflex at 30 mg/kg, ip incubated for 30 mins prior to pentobarbital-challenge; format: functional, organism-based; design: dose 30 mg/kg
Mus musculus [23] = experiment: Hypnotic effect in DBA mouse assessed as potentiation of baclofen-induced loss of righting reflex at 30 mg/kg, ip incubated for 30 mins prior to baclofen-challenge; format: functional, organism-based; design: dose 30 mg/kg
Mus musculus [24] = experiment: Hypnotic effect in DBA mouse assessed as reduction in baclofen-induced onset of loss of righting reflex over 10 mg/kg, ip incubated for 30 mins prior to baclofen-challenge relative to vehicle-treated control; format: functional, organism-based; design: dose 10 mg/kg
Mus musculus [25] = experiment: Hypnotic effect in DBA mouse assessed as increase in baclofen-induced duration of loss of righting reflex at 300 mg/kg, ig incubated for 30 mins prior to baclofen-challenge relative to vehicle-treated control; format: functional, organism-based; design: dose 300 mg/kg
Mus musculus [26] = experiment: Hypnotic effect in ip dosed DBA mouse assessed as increase in baclofen-induced duration of loss of righting reflex incubated for 30 mins prior to baclofen-challenge; format: functional, organism-based
Mus musculus [27] = experiment: Hypnotic effect in DBA mouse assessed as potentiation of baclofen-induced loss of righting reflex at 300 mg/kg, ip incubated for 30 mins prior to baclofen-challenge; format: functional, organism-based; design: dose 300 mg/kg
Mus musculus [28] = experiment: Hypnotic effect in DBA mouse assessed as increase in pentobarbital-induced duration of loss of righting reflex at 30 mg/kg, ip incubated for 30 mins prior to pentobarbital-challenge; format: functional; settings: route intraperitoneal

Structure (SMILES): CCc1c(C)sc(NC(=O)Oc2ccccc2)c1C(=O)OC
- Activity (Rattus norvegicus [1]): inactive
- Activity (Rattus norvegicus [2]): 8.2%
- Activity (Rattus norvegicus [3]): inactive
- Activity (Rattus norvegicus [4]): 3.9%

Structure (SMILES): CCc1c(C)sc(N(C)C(=O)c2ccc(Cl)cc2)c1C(=O)OC
- Activity (Rattus norvegicus [1]): inactive
- Activity (Rattus norvegicus [3]): inactive

Structure (SMILES): CCc1c(C)sc(NC(=O)c2ccc(Br)cc2)c1C(=O)OC
- Activity (Rattus norvegicus [1]): inactive
- Activity (Rattus norvegicus [3]): inactive

Structure (SMILES): CCc1c(C)sc(NC(=O)c2ccc(C)cc2)c1C(=O)OC(C)(C)C
- Activity (Rattus norvegicus [1]): inactive
- Activity (Rattus norvegicus [3]): inactive

Structure (SMILES): CCc1c(C)sc(NC(=O)c2ccc(I)cc2)c1C(=O)OC
- Activity (Rattus norvegicus [1]): inactive
- Activity (Rattus norvegicus [3]): inactive

Structure (SMILES): CCc1c(C)sc(NC(=O)Cc2ccccc2)c1C(=O)OC
- Activity (Rattus norvegicus [1]): inactive
- Activity (Rattus norvegicus [3]): inactive

Structure (SMILES): CCc1c(C)sc(NC(=O)c2ccc(OC)cc2)c1C(=O)OC
- Activity (Rattus norvegicus [1]): inactive
- Activity (Rattus norvegicus [3]): inactive

Structure (SMILES): COC(=O)c1ccsc1NC(=O)c1ccc(Cl)cc1
- Activity (Rattus norvegicus [1]): inactive
- Activity (Rattus norvegicus [3]): inactive

Structure (SMILES): CCc1c(C)sc(NC(=O)c2ccc(-c3ccc(C)cc3)cc2)c1C(=O)OC
- Activity (Rattus norvegicus [1]): inactive
- Activity (Rattus norvegicus [3]): inactive

Structure (SMILES): CCc1c(C)sc(NC(=O)c2ccccc2Cl)c1C(=O)OC
- Activity (Rattus norvegicus [1]): inactive
- Activity (Rattus norvegicus [3]): inactive

Continued, in another order:

- Activity (Rattus norvegicus [1]): inactive
- Activity (Rattus norvegicus [3]): inactive
Structure (SMILES): COc1ccc(C(=O)Nc2sc3c(c2C#N)CCCC3)cc1OC

- Activity (Rattus norvegicus [1]): inactive
- Activity (Rattus norvegicus [2]): 5.9%
- Activity (Rattus norvegicus [3]): inactive
- Activity (Rattus norvegicus [4]): 2.9%
Structure (SMILES): CCc1c(C)sc(NS(=O)(=O)c2ccccc2)c1C(=O)OC
- IC50 (NIH3T3): 146 µM

- Activity (Rattus norvegicus [2]): 15.1%
- Activity (Rattus norvegicus [4]): 2%
Structure (SMILES): CCc1c(C)sc(NC(=O)C2CCCCC2)c1C(=O)OC
- IC50 (NIH3T3): 33 µM

- Activity (Rattus norvegicus [1]): inactive
- Activity (Rattus norvegicus [2]): 12.1%
- Activity (Rattus norvegicus [3]): inactive
- Activity (Rattus norvegicus [4]): 3%
Structure (SMILES): CCc1c(C)sc(NC(=O)C2CCCC2)c1C(=O)OC
- IC50 (NIH3T3): 34 µM

- Activity (Rattus norvegicus [1]): inactive
- Activity (Rattus norvegicus [3]): inactive
Structure (SMILES): N#Cc1c(NC(=O)C2CCCCC2)sc2c1CCCC2
- selectivity ratio [5]: 4
- selectivity ratio [6]: 4

- Activity (Rattus norvegicus [1]): inactive
- Activity (Rattus norvegicus [2]): 9%
- Activity (Rattus norvegicus [3]): inactive
- Activity (Rattus norvegicus [4]): -4.1%
Structure (SMILES): COC(=O)c1c(NC(=O)c2ccc(OC)c(OC)c2)sc2c1CCCC2

- Activity (Rattus norvegicus [12]): 59%
Structure (SMILES): CSc1nc(NC2CCCC2)c([N+](=O)[O-])c(NC2CCCC2)n1 [GS-39783]
- Activity (Mus musculus [7]): Active
- Activity (Mus musculus [8]): Active
- Time (Mus musculus [9]): 57.3 min
- Time (Mus musculus [10]): 60 min
- Activity (Mus musculus [11]): Active
- Time (Mus musculus [13]): 2.3 min
- Time (Mus musculus [14]): 0 min
- Activity (Mus musculus [15]): Active
- Activity (Mus musculus [16]): Active
- IC50 (NIH3T3): 60 µM
- Activity (Mus musculus [17]): Active
- Time (Mus musculus [18]): 60 min
- Activity (Mus musculus [19]): inactive
- Activity (Mus musculus [20]): Dose-dependent effect
- Activity (Mus musculus [21]): inactive
- Activity (Mus musculus [22]): inactive
- Activity (Mus musculus [23]): Active
- Activity (Mus musculus [24]): Active
- Activity (Mus musculus [25]): Active
- Activity (Mus musculus [26]): Dose-dependent effect
- Activity (Mus musculus [27]): Active
- Time (Mus musculus [28]): 0 min

- Activity (Rattus norvegicus [1]): inactive
- Activity (Rattus norvegicus [3]): inactive
Structure (SMILES): CCc1c(C)sc(NS(=O)(=O)c2ccc(C)cc2)c1C(=O)OC
